Experimental data as given in patent US20210290676A1, “IMPROVING THE EFFICACY AND SAFETY OF ADOPTIVE CELLULAR THERAPIES” (University of Southern California, priority 2018, published 2021).

Columns and labels:
[1] = system: CD8+CD45RA+CCR7+CD62L+ T cells; assay: Flow cytometry for CD8, CD45RA, CCR7 and CD62L on inhibitor-treated T cells; format: cell-based, human; details: cells cultured for 14 days
Outline: (§1)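 Donor T cells were isolated from PBMC with CD3 microbeads and activated overnight in XVIVO 15 with IL2 50 IU/ml plus 30 ng/ml anti-CD3/CD28. They were treated with drugs from day 1, with medium and drug refreshed on days 7 and 13. After 13–14 days, cells were stained for CD8, CD45RA, CCR7 and CD62L (4 °C, 1 h) and analysed by flow cytometry.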

[2] = system: CD45RA+CCR7+CD62L+ T cells; assay: Flow cytometry for CD45RA, CCR7 and CD62L on inhibitor-treated T cells (all T cells); format: cell-based, human; details: cells cultured for 14 days
Outline: as §1

[3] = system: Pgp+ (DiOC2(3)-dye effluxing cells) and CD62L+ T cells; assay: DiOC2(3) dye efflux plus CD62L-APC staining, flow cytometry of inhibitor-treated T cells; format: cell-based, human; details: treatment for 13 days, IL2 + CD3 and CD28 antibodies
Outline: (§2)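 Donor PBMC-derived T cells, stimulated with IL2 (50 IU/ml) and/or CD3/CD28 antibodies (30 ng/ml), were exposed to inhibitors from day 1 for about 13 days with periodic drug re-addition. Cells were loaded with DiOC2(3) (60 ng/ml, 4° C, 40 min), effluxed at 37° C for 90 min, and optionally stained with CD62L-APC. Flow cytometry scored DiOC2(3)-dull (Pgp+) and CD62L+ populations.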

Nalm6-GLuc cells = assay: Blinatumomab induced cell death by inhibitor-treated T cells, Matador cytotoxicity assay; format: cell-based; details: Blinatumomab 100 ng/million T cells, overnight
Procedure: After 20 days of treatment with the inhibitors, cells from the preceding experiment were tested for their ability to induce Blinatumomab induced cell death using the Matador cytotoxicity assay. For this purpose, untreated and inhibitors-treated T cells were plated in a 24 well plate at 2×10^5 cells/well either alone or in the presence of 2×10^5 Nalm6-GLuc cells in XVIVO medium without any additional growth factors. Blinatumomab (Blincyto) was added at final concentration of 100 ng/million T cells. Cells were cultured overnight and next day supernatant was collected and assayed using the Matador assay. For the Matador Assay, 15 μl of supernatant was added to 15 μl of XVIVO medium in each well of a 384-well plate and hGLuc assay was done by adding 15 μl of 1:100 CTZ per well in well mode.

[4] = system: Pgp+ (DiOC2(3)-dye effluxing) T cells; assay: DiOC2(3) dye efflux flow cytometry of inhibitor-treated T cells; format: cell-based, human; details: treatment for 13 days, IL2 + CD3 and CD28 antibodies
Outline: as §2

[5] = Leukapheresis with and without mobilization and manufacturing of CAR-T/TCR-T cells from cancer patients; format: in vivo, human
Procedure: A study is conducted to compare the generation of cell therapy products from cancer patients who have received 2 or more cycles of prior chemotherapy. Patients with different types of different cancers (e.g., diffuse large B cell lymphoma, acute B-ALL, CLL, multiple myeloma, breast cancer, ovarian cancer, lung cancer etc.) are eligible. Leukapheresis products are collected from the subjects with and without mobilization with Perixafor (0.24 mg/kg subcutaneously daily on days 1-3). T cells are isolated and used for manufacturing of CAR-T and TCR-T cells using lentiviral mediated gene transduction as described in the preceding sections.

T cells = assay: In vitro expansion of CAR/TCR T cells with bispecific engagers and antigen presenting cells or substrate (CFSE staining); format: cell-based, human
Procedure: Buffy coat cells are obtained from healthy de-identified adult donors from the Blood Bank and used to isolate peripheral blood mononuclear cells (PBMC) by Ficoll-Hypaque gradient centrifugation. PBMC are either used as such or used to isolate T cells using CD3 magnetic microbeads (Miltenyi Biotech) and following the manufacturer's instructions. PBMC or isolated T cells are re-suspended in XVIVO medium (Lonza) supplanted with 10 ng/ml CD3 antibody, 10 ng/ml CD28 antibody and 100 IU recombinant human-IL2. In an alternate embodiment, PBCM or T cells are activated by resuspending them at concentration of 5×10^5 cells/ml in fresh XVIVO media containing Blinatumomab (10 ng/ml) plus irradiated (100 Gy) REC-1 cells (Mantle Cell lymphoma; ATCC Catalog #CRL-3004) at concentration of 5×10^6 cells/ml in the presence of 50 IU recombinant human-IL2. In another alternate embodiment, the cell culture medium further contains a purified CD19×CD28 bispecific antibody (SEQ ID NO: 2708, 2705 or 2706) and/or a CD19×41BB bispecific antibody (SEQ ID NO: 2761, 2762, 2758 or 2764) each at concentration of about 10 ng/ml. Cells are cultured at 37° C., in a 5% CO2 humidified incubator. Cells are activated in the above medium for 1 day prior to infection with lentiviral vectors encoding a CAR or a TCR (e.g., SEQ ID NO: 2822 to 2835) or a TCR (SEQ ID NO: 2836). In general, primary cells (e.g. T cells) are infected in the morning using spin-infection (1800 rpm for 90 minutes at 37° C. with 300 μl of concentrated virus that has been re-suspended in XVIVO medium in the presence of 8 μg/ml of Polybrene® (Sigma, Catalog no. H9268). After the infection, the cells are pelleted and resuspended at concentration of 5×10^5 cells/ml in fresh XVIVO media containing Blinatumomab (10 ng/ml) plus irradiated (100 Gy) REC-1 (Mantle Cell lymphoma; ATCC Catalog #CRL-3004) cells (5×10^6 cells/ml) and 50 IU recombinant human-IL2. Cells are cultured in the above medium for 10-15 days. Culture media is supplemented with fresh REC-1 cells, blinatumomab and IL2 every 2-4 days. […] The expanded CAR-T cells are subsequently used for in vitro cytotoxicity studies, in vivo efficacy studies in NSG mice and clinical trial of patients with cancers expressing the antigens targeted by the CAR/TCR using methods known in the art.
The above experiment is also repeated using CD19+ RAJI and NALM6 cells. […] Thus, mantle cell lymphoma cells and, in particular, REC-1 cells are the preferred antigen presenting cells for expansion of T cells (e.g., CAR-T cells, TCR-T cells and TILs) when used in conjuction with bispecific T cell engagers that has at least one binding domain that binds to an antigen expressed on REC-1 (e.g, CD19, CD20, CD22 and BCMA). […]

Cc1cc(=O)n(C)c2cc(N3C(=O)CC[C@H](NS(=O)(=O)CC(C)C)[C@H]3c3ccc(Cl)cc3)ccc12 [LP99]
GATE P4 CD8(PerCP)+, CD45RA(FITC)+, CCR7 (PE)+, CD62L(APC) ([1]; 500 nM): 79.25% | GATE P4 CD8(PerCP)+, CD45RA(FITC)+, CCR7 (PE)+, CD62L(APC) ([1]; 1 μM): 79.77% | GATE P6 CD45RA(FITC)+, CCR7 (PE)+, CD62L(APC) ([2]; 500 nM): 69.67% | GATE P6 CD45RA(FITC)+, CCR7 (PE)+, CD62L(APC) ([2]; 1 μM): 67.58% | p5: double +ve pgp+ and CD62L-APC+ from Live cells ([3]; 500 nM): 3.52 | p5: double +ve pgp+ and CD62L-APC+ from Live cells ([3]; 1 μM): 4.18 | Blinatumomab induced cytotoxicity compared to untreated T cells (Nalm6-GLuc cells; T cells after 20 days of treatment at 1 μM): significant increase in cytotoxicity | p2: pgp+ from Live cells ([4]; 500 nM): 19.46 | p2: pgp+ from Live cells ([4]; 1 μM): 20.66

Cc1cc(C)c(CNC(=O)c2cc(-c3ccc(CN4CCOCC4)cc3)cc3c2cnn3C2CCCC2)c(=O)[nH]1 [EPZ005687]
GATE P4 CD8(PerCP)+, CD45RA(FITC)+, CCR7 (PE)+, CD62L(APC) ([1]; 10 nM): 74.86% | GATE P4 CD8(PerCP)+, CD45RA(FITC)+, CCR7 (PE)+, CD62L(APC) ([1]; 100 nM): 79.65% | GATE P6 CD45RA(FITC)+, CCR7 (PE)+, CD62L(APC) ([2]; 10 nM): 64.01% | GATE P6 CD45RA(FITC)+, CCR7 (PE)+, CD62L(APC) ([2]; 100 nM): 69.92% | p5: double +ve pgp+ and CD62L-APC+ from Live cells ([3]; 10 nM): 5.21 | p5: double +ve pgp+ and CD62L-APC+ from Live cells ([3]; 100 nM): 3.87 | Blinatumomab induced cytotoxicity compared to untreated T cells (Nalm6-GLuc cells; T cells after 20 days of treatment at 100 nM): significant increase in cytotoxicity | p2: pgp+ from Live cells ([4]; 10 nM): 23.99 | p2: pgp+ from Live cells ([4]; 100 nM): 16.94

GM-CSF: cytokine used as mobilization agent
yield of leukapheresis product for generation of CAR-T cells ([5]; mobilization prior to leukapheresis): improve the yield

c1cc(CN2CCCNCCNCCCNCC2)ccc1CN1CCCNCCNCCCNCC1 [Perixafor, 1,1′-[1,4-phenylenebis(methylene)]bis [1,4,8,11-tetraazacyclotetradecane]]
yield of T cells in the initial leukapheresis product ([5]; cancer patients with 2 or more cycles of prior chemotherapy, with versus without mobilization): improves the yield | effect on gene transduction, CAR/TCR expression, in vitro and in vivo expansion, cytotoxicity, cytokine production and anti-tumor efficacy of CAR-T/TCR-T products ([5]; with versus without mobilization): no major adverse effect

Blinatumomab: a CD19×CD3 bispecific antibody
expansion of CAR-T cells (T cells; 10 ng/ml with CD19-ECD beads, CD28 antibody 10 ng/ml and IL2 50 IU, 10-25 days): Robust expansion | expansion of cells, CFSE staining (T cells; 10 ng/ml with irradiated REC-1 cells and 50 IU IL2, 10-15 days): Robust expansion | degree of expansion of CAR or TCR expressing T cells (T cells; co-culture with CD19+ RAJI and NALM6 cells instead of REC-1 cells): less than that observed with REC-1 cells | expansion of CAR-expressing PBMC and/or T cells (T cells; combination of Blinatumomab, CD19×CD28 bispecific antibody, REC-1 cells and IL2): Robust expansion

CCC(CC)n1ccc2c(C(=O)NCc3c(C)cc(C)[nH]c3=O)cc(C#N)cc21 [EI1]
GATE P4 CD8(PerCP)+, CD45RA(FITC)+, CCR7 (PE)+, CD62L(APC) ([1]; 500 nM): 76.19% | GATE P4 CD8(PerCP)+, CD45RA(FITC)+, CCR7 (PE)+, CD62L(APC) ([1]; 1 μM): 78.47% | GATE P6 CD45RA(FITC)+, CCR7 (PE)+, CD62L(APC) ([2]; 500 nM): 67.64% | GATE P6 CD45RA(FITC)+, CCR7 (PE)+, CD62L(APC) ([2]; 1 μM): 66.83% | p5: double +ve pgp+ and CD62L-APC+ from Live cells ([3]; 500 nM): 10.2 | p5: double +ve pgp+ and CD62L-APC+ from Live cells ([3]; 1 μM): 19.21 | Blinatumomab induced cytotoxicity compared to untreated T cells (Nalm6-GLuc cells; T cells after 20 days of treatment at 500 nM): significant increase in cytotoxicity | p2: pgp+ from Live cells ([4]; 500 nM): 33.53 | p2: pgp+ from Live cells ([4]; 1 μM): 59.77
